Consider 28 compounds from PubChem BioAssay AID192 (DTP/NCI, 2004).

Toxic doses and inconclusive results are not listed.

The assay concerns BDF1 mice, B16 melanoma ip, median survival T/C. As to the kind of experiment: NCI In Vivo Anticancer Drug Screen. Data for tumor model B16 Melanoma (intraperitoneal) in B6D2F1 (BDF1) mice. To be noted: endpoint: median survival time, higher = longer survival. The procedure, abridged:
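Read-out: survival or tumor size, given as treated/control ratio. Controls received vehicle only; animals bore transplantable tumors.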

Where [1] appears, read: dose: 100.0 mg/kg/injection, schedule: Q01DX009 (ip), vehicle: Klucel (hydroxypropylcellulose) (HPC).
The mark [2] stands for this setting: dose: 200.0 mg/kg/injection, schedule: Q01DX009 (ip), vehicle: Klucel (hydroxypropylcellulose) (HPC).
Where [3] appears, read: dose: 400.0 mg/kg/injection, schedule: Q01DX009 (ip), vehicle: Klucel (hydroxypropylcellulose) (HPC).
The mark [4] stands for this setting: dose: 25.0 mg/kg/injection, schedule: Q01DX009 (ip), vehicle: saline.
Setting [5] is: dose: 50.0 mg/kg/injection, schedule: Q01DX009 (ip), vehicle: saline.
Where [6] appears, read: dose: 100.0 mg/kg/injection, schedule: Q01DX009 (ip), vehicle: saline.
[7] abbreviates: dose: 6.25 mg/kg/injection, schedule: Q01DX009 (ip), vehicle: saline.
The mark [8] stands for this setting: dose: 50.0 mg/kg/injection, schedule: Q01DX009 (ip), vehicle: saline with Tween-80.
[9] abbreviates: dose: 100.0 mg/kg/injection, schedule: Q01DX009 (ip), vehicle: saline with Tween-80.
Setting [10] is: dose: 200.0 mg/kg/injection, schedule: Q01DX009 (ip), vehicle: saline with Tween-80.
Setting [11] is: dose: 400.0 mg/kg/injection, schedule: Q01DX009 (ip), vehicle: saline with Tween-80.
Setting [12] is: dose: 50.0 mg/kg/injection, schedule: Q01DX009 (ip), vehicle: Klucel (hydroxypropylcellulose) (HPC).
The mark [13] stands for this setting: dose: 12.5 mg/kg/injection, schedule: Q01DX009 (ip), vehicle: saline with Tween-80.
Where [14] appears, read: dose: 200.0 mg/kg/injection, schedule: Q01DX009 (ip), vehicle: saline.
[15] abbreviates: dose: 400.0 mg/kg/injection, schedule: Q01DX009 (ip), vehicle: saline.
Setting [16] is: dose: 12.5 mg/kg/injection, schedule: Q01DX009 (ip), vehicle: saline.

For the compound `c1ccc(COc2ccc(Nc3ccccc3)cc2)cc1`, the T/C is 106 % of control under setting [1], 109 % of control under setting [2] and 112 % of control under setting [3].
`O=[N+]([O-])c1ccc(/C=N\Nc2ccc([N+](=O)[O-])cn2)cc1`: the T/C is 106 % of control (dose: 0.78 mg/kg/injection, schedule: Q01DX009 (ip), vehicle: Klucel (hydroxypropylcellulose) (HPC)); 97 % of control (dose: 1.56 mg/kg/injection, schedule: Q01DX009 (ip), vehicle: Klucel (hydroxypropylcellulose) (HPC)); 86 % of control (dose: 3.12 mg/kg/injection, schedule: Q01DX009 (ip), vehicle: Klucel (hydroxypropylcellulose) (HPC)); 97 % of control (dose: 6.25 mg/kg/injection, schedule: Q01DX009 (ip), vehicle: Klucel (hydroxypropylcellulose) (HPC)); 86 % of control (dose: 12.5 mg/kg/injection, schedule: Q01DX009 (ip), vehicle: Klucel (hydroxypropylcellulose) (HPC)).
Regarding `OC1CCC(O)C1(Cl)Cl` (stereo not given), the T/C is 98 % of control under setting [4], 109 % of control under setting [5] and 91 % of control under setting [6].
With `NC(N)=Nc1ccc(C(=O)Oc2ccc([N+](=O)[O-])cc2CN2CCCCC2)cc1`, the T/C was 100 % of control (dose: 3.13 mg/kg/injection, schedule: Q01DX009 (ip), vehicle: saline) and 100 % of control under setting [7].
For the compound `COC(=O)/C=C/C=C(c1ccccc1)c1ccccc1`, the T/C is, setting by setting: under setting [8], 94 % of control; under setting [9], 100 % of control; under setting [10], 94 % of control; under setting [11], 94 % of control.
As for `Nc1nc(N)nc(N)n1`, the T/C by setting is: under setting [1], 100 % of control; under setting [9], 102 % of control; under setting [2], 100 % of control; under setting [10], 102 % of control; under setting [3], 105 % of control; under setting [11], 87 % of control. The T/C (dose: 800.0 mg/kg/injection, schedule: Q01DX009 (ip), vehicle: saline with Tween-80) is 90 % of control.
On to `CCN(CC)CCOC(=O)Cc1cccc2c(=O)cc(-c3ccccc3)oc12`, for which the T/C under setting [4] is 109 % of control and the T/C under setting [5] is 113 % of control.
For `O=C(O)C(=O)O.[U]`, the T/C (dose: 4.0 mg/kg/injection, schedule: Q01DX009 (ip), vehicle: Klucel (hydroxypropylcellulose) (HPC)) was 88 % of control; the T/C (dose: 8.0 mg/kg/injection, schedule: Q01DX009 (ip), vehicle: Klucel (hydroxypropylcellulose) (HPC)) was 93 % of control; the T/C (dose: 16.0 mg/kg/injection, schedule: Q01DX009 (ip), vehicle: Klucel (hydroxypropylcellulose) (HPC)) was 87 % of control.
Turning to `CC(=O)CC(=O)Oc1ccccc1OC(C)=O`, the T/C was 94 % of control under setting [12] and 100 % of control under setting [1].
With `NC(Cc1ccc(N(CCCl)CCCl)cc1)C(=O)O` (stereo not given), the T/C by setting is: (dose: 2.0 mg/kg/injection, schedule: Q01DX009 (ip), vehicle: saline) 188 % of control; (dose: 2.0 mg/kg/injection, schedule: Q01DX009 (ip), vehicle: water) 118 % of control; (dose: 4.0 mg/kg/injection, schedule: Q01DX009 (ip), vehicle: water) 272 % of control; (dose: 8.0 mg/kg/injection, schedule: Q01DX009 (ip), vehicle: water) 172 % of control.
As for `O=[N+]([O-])c1ccc(O)c(N=Cc2ccc(C=Nc3cc([N+](=O)[O-])ccc3O)cc2)c1`, the T/C runs as follows: (dose: 75.0 mg/kg/injection, schedule: Q01DX009 (ip), vehicle: Klucel (hydroxypropylcellulose) (HPC)) 89 % of control; (dose: 150.0 mg/kg/injection, schedule: Q01DX009 (ip), vehicle: Klucel (hydroxypropylcellulose) (HPC)) 93 % of control.
`CC(C)CNN(CC(C)C)C(N)=O`: the T/C is, setting by setting: under setting [9], 111 % of control; under setting [10], 86 % of control.
For `O=c1cc(CCl)[nH]nc1CCl`, the T/C was 107 % of control (dose: 1.5 mg/kg/injection, schedule: Q01DX009 (ip), vehicle: saline with Tween-80); 116 % of control (dose: 3.0 mg/kg/injection, schedule: Q01DX009 (ip), vehicle: saline with Tween-80); 123 % of control (dose: 3.12 mg/kg/injection, schedule: Q01DX009 (ip), vehicle: saline with Tween-80); 124 % of control under setting [13].
`O=S(O)OS(=O)O`: the T/C by setting is: (dose: 50.0 mg/kg/injection, schedule: Q04DX003 (ip), vehicle: saline) 101 % of control; (dose: 100.0 mg/kg/injection, schedule: Q04DX003 (ip), vehicle: saline) 101 % of control; (dose: 200.0 mg/kg/injection, schedule: Q04DX003 (ip), vehicle: saline) 94 % of control.
On to `O=C(O)CCC1CCC(=O)OC1=O` (stereo not given), for which the T/C under setting [6] is 112 % of control, the T/C under setting [14] was 113 % of control and the T/C under setting [15] was 113 % of control.
For the compound `CC1(C)CC(O)(C(Cl)c2ccccc2)C(=O)c2ccccc21` (stereo not given), the T/C is 103 % of control under setting [12], 95 % of control under setting [1], 94 % of control under setting [2] and 90 % of control under setting [3].
Take `CCCCCCCCCCCCCCCCCCNC(=O)Nc1c(C)cc(C)cc1C`: the T/C (dose: 100.0 mg/kg/injection, schedule: Q01DX009 (ip), vehicle: gum acacia) is 88 % of control.
Regarding `CCC(C)CC(=O)O` (stereo not given), the T/C reads like this: under setting [6], 97 % of control; under setting [14], 97 % of control; under setting [15], 93 % of control.
`CC(CN1CCN(C)CC1)CN1c2ccccc2Sc2ccc(C(F)(F)F)cc21` (stereo not given): the T/C is 110 % of control (dose: 1.56 mg/kg/injection, schedule: Q01DX009 (ip), vehicle: saline); 110 % of control (dose: 3.12 mg/kg/injection, schedule: Q01DX009 (ip), vehicle: saline); 123 % of control under setting [7]; 107 % of control under setting [16].
For the compound `Oc1ccc(C2(c3ccc(O)cc3)CCCCC2)cc1`, the T/C (dose: 50.0 mg/kg/injection, schedule: Q01DX009 (ip), vehicle: acetone) is 97 % of control.
Consider `O=C(/C=C/c1ccc2c(c1)OCO2)c1ccc2c(c1)OCO2`, for which the T/C is, setting by setting: under setting [1], 100 % of control; under setting [2], 110 % of control; under setting [3], 117 % of control.
With `CN(C)c1n[nH]c(N)n1`, the T/C runs as follows: under setting [16], 91 % of control; under setting [4], 102 % of control; under setting [5], 95 % of control; under setting [6], 96 % of control; under setting [14], 102 % of control; under setting [15], 104 % of control.
For `COc1cccc(/C=N\N=C\c2cccc(OC)c2OC)c1OC`, the T/C reads like this: under setting [7], 95 % of control; under setting [16], 97 % of control.
As for `Cc1cc(CN)c(C)cc1CN`, the T/C (dose: 44.0 mg/kg/injection, schedule: Q01DX009 (ip), vehicle: saline) is 91 % of control.
As to `COc1ccc2[nH]c3c(C)c4cc[n+](C)c(C)c4cc3c2c1`, the T/C reads like this: (dose: 10.0 mg/kg/injection, schedule: Q04DX003 (ip), vehicle: water) 113 % of control; (dose: 20.0 mg/kg/injection, schedule: Q04DX003 (ip), vehicle: water) 98 % of control; (dose: 40.0 mg/kg/injection, schedule: Q04DX003 (ip), vehicle: water) 105 % of control; (dose: 80.0 mg/kg/injection, schedule: Q04DX003 (ip), vehicle: water) 117 % of control.
Regarding `OC(CCCCl)CC(O)(C(F)(F)F)C(F)(F)F` (stereo not given), the T/C reads like this: under setting [8], 111 % of control; (dose: 50.0 mg/kg/injection, schedule: Q04DX003 (ip), vehicle: saline with Tween-80) 112 % of control; under setting [9], 102 % of control; (dose: 100.0 mg/kg/injection, schedule: Q04DX003 (ip), vehicle: saline with Tween-80) 115 % of control; under setting [10], 108 % of control; (dose: 200.0 mg/kg/injection, schedule: Q04DX003 (ip), vehicle: saline with Tween-80) 120 % of control.
Regarding `CCOC(=O)CCN1CC(C)OC(C)C1` (stereo not given), the T/C runs as follows: under setting [6], 118 % of control; under setting [14], 115 % of control; under setting [15], 118 % of control.
As to `CC(C)(C)CC(C)(C)CC(C)(C)NCCCN`, the T/C (dose: 6.25 mg/kg/injection, schedule: Q01DX009 (ip), vehicle: saline with Tween-80) was 105 % of control; the T/C under setting [13] was 91 % of control; the T/C (dose: 25.0 mg/kg/injection, schedule: Q01DX009 (ip), vehicle: saline with Tween-80) is 86 % of control.
